Patent US12239713B2, “Degradable polyethylene glycol conjugate” (NOF CORPORATION, priority 2018, dated 2025)
Where no end group is shown, it is not given here.

System: blood calcium concentration
Test: Evaluation of physiological activity of PEGylated salmon calcitonin (blood calcium concentration)
Format: in vivo, Mouse Balb/c
Details: sCT dose 40 μg/kg, blood at 1, 3, 6, 24 hr, compared to saline (PBS) group, FIG. 10
Procedure: The method for evaluating the physiological activity of a bio-related substance bonded to a degradable polyethylene glycol derivative is not particular limited. For example, when the bio-related substance is insulin, blood sugar concentration is measured, and when it is calcitonin, blood calcium concentration is measured, by periodically collecting blood from the animal that received administration and measuring the substance in the blood by using an appropriate analytical instrument, and the like, based on which the evaluation can be performed. Specifically, in the case of insulin, a glucose measurement kit is used to monitor a decrease in glucose concentration after administration and, in the case of calcitonin, a decrease in calcium concentration after administration is monitored using a calcium measurement kit, based on which the evaluation can be performed.
The physiological activities of 4 groups of ME-200GLFG (SEQ ID NO: 4) (L)-200-sCT which is SCT to which degradable polyethylene glycol derivative with a molecular weight of 40,000 is bonded and obtained in Example 16, methoxy PEG 40 kDa-sCT bonded to nondegradable methoxy PEG 40 kDa, unmodified sCT, and saline were comparatively evaluated in animal experiments. […]

salmon calcitonin (CSNLSTCVLGKLSQELHKLQTYPRTNTGSGTP; ends and bridges not checked; cysteine pairing not given here) [Unmodified sCT]
calcium concentration in blood (in words): showed an increase in calcium concentration 6 hr after administration
